The results in this text go back to patent US6436996B1, “Modulation of nitric oxide production” (Duke University, priority 1997, dated 2002).

Entries after “also recorded” stand apart in the source; their conditions may differ.

The test system of this assay is human monocyte-derived macrophage cells. Kind of assay: Nitrite (NO) production in gamma-IFN-primed human monocyte-derived macrophages, Griess reaction. The conditions noted are these: for nitrite levels compared to poly I:C treatment alone: Aβ peptide (5 μM) plus APOE (10 nM) plus poly I:C (50 μg/ml); for change in nitrite levels compared to untreated human MDMs: Aβ peptide alone, 1 to 10 μgM. It counts as cell-based. As for the experimental part:
Cell Cultures: Human monocytes from normal, adult volunteers were generously provided by Dr. D. Webb, Center for Biologics Evaluation and Research, NIH, Bethesda, Md. Elutriated monocytes were cultured in Dulbecco's Modified Eagle Medium (DMEM) containing 20% fetal calf serum, 10% human […] (ABI Technologies, Columbia, Md.) and […] human M-Colony Stimulating Factor (M-CSF, Genzyme, Boston, Mass.) at 37° C. in a humidified atmosphere of 5% CO2, 95% air. After 5 to 7 days, morphological changes including spreading and branching of the cells signaled differentiation from monocytes to macrophages and are now commonly called “Monocyte-Derived Macrophages” (MDMs). MDM cells were removed from the flasks by gentle trypsinization, plated at 40,000 cells/well into 96 well microtiter plates and allowed to recover overnight. These MDM cells were then primed by exposure to 1000 U/ml recombinant human gamma interferon (gamma-IFN, Sigma Chemical Co., St. Louis, Mo.) diluted into HL-1 serum free media (Hycor Biomedical Include, Irvine, Calif.). At the end of 12 h priming with gamma-IFN, the priming media was replaced with HL-1 serum free media before experimental treatments as listed in the text. Following experimental treatments, the media was removed and assayed for nitrite levels using the Griess reaction [Colton, C. et al., Mol. Chem. Neuropathol. 28, 15-20 (1996)].
Treatment Factors and Conditions: M-CSF-differentiated and gamma-IFN-primed monocyte-derived macrophage cells were treated by incubation with varying concentrations of Aβ 1-40, its reverse sequence Aβ 40-1 and a non-toxic Aβ fragment, Aβ 1-28 (Bachem, Torrance, Calif.). Aβ peptides were diluted into sterile, double-distilled water and allowed to aggregate at room temperature for 48 h and then stored at −80° C. until use. Human apolipoprotein-E purified protein (Chemicon International, Inc., Temecula, Calif.) was reconstituted in serum free media and added to cells. The double stranded polyribonucleotide, polyinosinic:polycytidylic acid (poly I:C potassium salt, Sigma Chemical Co., St. Louis, Mo.) was also reconstituted into serum free media and used to stimulate nitric oxide (NO) production as described by J. Snell et al., Journal of Leukocyte Biology, 62, 369 (1997).
Measurement of Nitric Oxide (NO): After treatment, conditioned media was removed from cells and the level of nitrite, which is a stable end-product of NO release in biological systems, measured using the Griess reaction [Colton, C., supra]. Briefly, conditioned media were transferred to a new 96 well microtiter plate and an equal volume of Griess reagents were added to each well. After 10 minutes of incubation at room temperature, color development was assessed at 550 nm using a plate reader. Nitrite levels are presented as μM/well which contained 40,000 cells and an average (±SEM) obtained for at least 4 wells assayed per experimental condition for each of at least 4 individual donors. Treatment with the nitric oxide synthase (NOS) inhibitor, N-G-methyl-l-arginine (L-NMMA) was used to determine the level of NOS-mediated NO production. Statistical significance was determined using a one way analysis of variance (ANOVA).
(Griess reagent forms a coloured azo dye with nitrite.)

Take “polyinosinic:polycytidylic acid [poly I:C]”: where the note is “gamma-IFN-primed MDMs, 50 μg/ml poly I:C alone, 5 days”, the “increase in nitrite levels compared to untreated controls” value turned out to be 126%.
In the case of “Aβ 1-28: non-toxic amyloid-βeta peptide fragment 1-28 (Bachem)”, the “nitrite levels compared to poly I:C treatment alone” value (5 days) is “same result”. The “change in nitrite levels compared to untreated human MDMs” value (5 days, gamma-IFN-primed MDMs) is listed as “no significant change”.
In the case of `CNC(=N)NCCC[C@H](N)C(=O)O` [L-NMMA, N-G-methyl-l-arginine], where the note is “L-NMMA added to APOE plus poly I:C stimulated MDMs, data not shown”, the “effect of NOS inhibitor on nitrite levels” value is reported as “reduced nitrite levels to those seen in the unstimulated controls; also recorded: inhibitable”.
In the case of “Aβ 1-40: toxic amyloid-βeta peptide 1-40 fragment of APP (Bachem), aggregated 48 h”, the “nitrite levels compared to untreated control MDMs” value (Aβ 1-40 and APOE in the absence of poly I:C) was “no significant effect”. Moreover, the “nitrite levels compared to poly I:C treatment alone” value (5 days) was “no significant difference”. Moreover, for the setting “5 days, gamma-IFN-primed MDMs”, the “change in nitrite levels compared to untreated human MDMs” value was “not significantly different; also recorded: no significant change”. The “nitrite levels compared to poly I:C alone” value (Aβ peptide combined with 50 μg/ml poly I:C, 5 days) is “not significantly different”.
“boiled APOE: APOE denatured by boiling, control for non-denatured APOE”: the “nitrite levels compared to poly I:C alone” value (boiled (denatured) APOE together with poly I:C, data not shown) is “unable to increase NO production”.
As for “APOE: Human apolipoprotein-E purified protein (Chemicon International), reconstituted in serum free media”, the “overall increase in nitrite levels compared to untreated or APOE-alone treated MDMs” value (10 nM APOE together with 50 μg/ml poly I:C) was determined as 282%. In addition, the “increase in nitrite levels compared to poly I:C alone” value (10 nM APOE together with 50 μg/ml poly I:C, 5 days, p<0.009) was determined as 68%. The “nitrite levels compared to untreated controls” value (APOE alone, 1 nM to 100 nM, 5 days, gamma-IFN-primed MDMs) was “no significant increase”. For the same compound, the “NO released compared to unprimed cells” value (APOE and poly I:C) is listed as ~3 fold.
